From ChEMBL document CHEMBL1201862, “PubChem BioAssay data set” (2004)
One block for each compound: values may come before it. Activity calls are given as the source filed them.

How the values were obtained:
Prothrombin = Prothrombin (Bos taurus, UniProt P00735); assay: thrombin protease inhibitors – biochemical, fluorescence polarization, uHTS hits, dose response (AID 602369); format: functional
[1] = molecular target: 26S proteasome non-ATPase regulatory subunit 14 (Homo sapiens, UniProt O00487); assay: inhibition of proteasome subunit RPN11 – biochemical, fluorescence polarization, uHTS hits, confirmation (AID 602368); format: functional
[2] = molecular target: 72 kDa type IV collagenase (Homo sapiens, UniProt P08253); assay: Dose Response validation of uHTS RPN11 inhibitor hits using a MMP-2 Fluorescence assay.; format: functional
[3] = molecular target: Induced myeloid leukemia cell differentiation protein Mcl-1 (Homo sapiens, UniProt Q07820); format: functional
[4] = molecular target: T1, Neuropeptides B/W receptor type 1 (Homo sapiens, UniProt P48145); assay: human NPBW1 receptor blockade, IC50 – cell-based, fluorescence, dose response, set 5, late-stage follow-up (AID 588566); format: functional
T1 sequence (P48145 whole entry): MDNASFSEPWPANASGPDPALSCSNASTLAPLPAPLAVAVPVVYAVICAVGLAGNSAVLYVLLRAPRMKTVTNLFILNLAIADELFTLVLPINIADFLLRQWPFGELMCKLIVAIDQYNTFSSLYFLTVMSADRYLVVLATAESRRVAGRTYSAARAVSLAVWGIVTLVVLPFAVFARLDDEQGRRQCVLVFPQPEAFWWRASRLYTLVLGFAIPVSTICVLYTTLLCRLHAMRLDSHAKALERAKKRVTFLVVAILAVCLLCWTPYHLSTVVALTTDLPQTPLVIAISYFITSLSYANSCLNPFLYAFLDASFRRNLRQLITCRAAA

[5] = molecular target: Melanin-concentrating hormone receptor 1 (Homo sapiens, UniProt Q99705); assay: Late-stage fluorescence-based counterscreen for antagonists of the G-protein coupled receptor 7 (GPR7): cell-based dose response assay to identify antagonists of the melanin-concentrating hormone receptor 1 (MCHR1) Set 5.; format: functional
[6] = molecular target: T2, Sentrin-specific protease 7 (Homo sapiens, UniProt Q9BQF6); assay: inhibition of human SENP7 cleavage activity – biochemical, luminescence, SAR follow-up (AID 504497); format: functional
T2 sequence (Q9BQF6 whole entry): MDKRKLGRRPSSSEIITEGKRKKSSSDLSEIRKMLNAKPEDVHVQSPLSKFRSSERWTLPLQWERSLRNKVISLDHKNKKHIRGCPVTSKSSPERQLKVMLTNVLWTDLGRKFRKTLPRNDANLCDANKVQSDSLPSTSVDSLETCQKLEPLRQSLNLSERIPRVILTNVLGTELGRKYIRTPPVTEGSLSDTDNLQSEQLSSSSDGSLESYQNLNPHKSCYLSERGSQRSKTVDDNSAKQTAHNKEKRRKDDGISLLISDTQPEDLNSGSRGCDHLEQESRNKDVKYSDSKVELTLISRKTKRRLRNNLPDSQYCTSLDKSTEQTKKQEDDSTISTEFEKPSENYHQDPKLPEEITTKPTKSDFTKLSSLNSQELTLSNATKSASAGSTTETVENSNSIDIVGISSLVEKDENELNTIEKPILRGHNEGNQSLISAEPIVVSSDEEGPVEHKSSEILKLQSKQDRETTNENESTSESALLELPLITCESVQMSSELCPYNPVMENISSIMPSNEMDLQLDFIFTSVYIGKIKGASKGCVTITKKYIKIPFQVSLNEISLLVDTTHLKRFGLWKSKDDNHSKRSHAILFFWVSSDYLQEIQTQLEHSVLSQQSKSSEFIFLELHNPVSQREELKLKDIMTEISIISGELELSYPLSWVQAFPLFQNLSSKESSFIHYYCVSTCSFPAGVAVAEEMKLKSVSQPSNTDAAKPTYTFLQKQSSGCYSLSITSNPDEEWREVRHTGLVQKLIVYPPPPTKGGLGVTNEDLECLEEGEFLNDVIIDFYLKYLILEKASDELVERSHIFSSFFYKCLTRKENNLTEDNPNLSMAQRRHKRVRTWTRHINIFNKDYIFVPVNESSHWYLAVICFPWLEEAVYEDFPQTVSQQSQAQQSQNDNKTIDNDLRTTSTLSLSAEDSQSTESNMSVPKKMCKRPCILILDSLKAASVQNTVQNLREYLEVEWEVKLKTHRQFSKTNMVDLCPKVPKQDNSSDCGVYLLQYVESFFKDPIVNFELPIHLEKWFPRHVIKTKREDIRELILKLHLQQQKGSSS

[7] = molecular target: T3, Sentrin-specific protease 8 (Homo sapiens, UniProt Q96LD8); assay: inhibition of human SENP8 cleavage activity – biochemical, luminescence, SAR follow-up (AID 504501); format: functional
T3 sequence (Q96LD8 whole entry): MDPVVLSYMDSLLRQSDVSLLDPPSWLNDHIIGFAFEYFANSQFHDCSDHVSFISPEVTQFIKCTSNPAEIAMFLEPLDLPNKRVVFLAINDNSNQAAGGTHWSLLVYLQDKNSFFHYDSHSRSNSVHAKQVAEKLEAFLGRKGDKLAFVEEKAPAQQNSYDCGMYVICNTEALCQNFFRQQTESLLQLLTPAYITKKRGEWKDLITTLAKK

[8] = molecular target: T4, Sentrin-specific protease 6 (Homo sapiens, UniProt Q9GZR1); assay: SAR Analysis of small molecule inhibitors of Sentrin-specific protease 6 (SENP6) using a Luminescent assay. [Related pubchem assays (depositor defined):AID2582, AID2599]; format: functional
T4 sequence (Q9GZR1 whole entry): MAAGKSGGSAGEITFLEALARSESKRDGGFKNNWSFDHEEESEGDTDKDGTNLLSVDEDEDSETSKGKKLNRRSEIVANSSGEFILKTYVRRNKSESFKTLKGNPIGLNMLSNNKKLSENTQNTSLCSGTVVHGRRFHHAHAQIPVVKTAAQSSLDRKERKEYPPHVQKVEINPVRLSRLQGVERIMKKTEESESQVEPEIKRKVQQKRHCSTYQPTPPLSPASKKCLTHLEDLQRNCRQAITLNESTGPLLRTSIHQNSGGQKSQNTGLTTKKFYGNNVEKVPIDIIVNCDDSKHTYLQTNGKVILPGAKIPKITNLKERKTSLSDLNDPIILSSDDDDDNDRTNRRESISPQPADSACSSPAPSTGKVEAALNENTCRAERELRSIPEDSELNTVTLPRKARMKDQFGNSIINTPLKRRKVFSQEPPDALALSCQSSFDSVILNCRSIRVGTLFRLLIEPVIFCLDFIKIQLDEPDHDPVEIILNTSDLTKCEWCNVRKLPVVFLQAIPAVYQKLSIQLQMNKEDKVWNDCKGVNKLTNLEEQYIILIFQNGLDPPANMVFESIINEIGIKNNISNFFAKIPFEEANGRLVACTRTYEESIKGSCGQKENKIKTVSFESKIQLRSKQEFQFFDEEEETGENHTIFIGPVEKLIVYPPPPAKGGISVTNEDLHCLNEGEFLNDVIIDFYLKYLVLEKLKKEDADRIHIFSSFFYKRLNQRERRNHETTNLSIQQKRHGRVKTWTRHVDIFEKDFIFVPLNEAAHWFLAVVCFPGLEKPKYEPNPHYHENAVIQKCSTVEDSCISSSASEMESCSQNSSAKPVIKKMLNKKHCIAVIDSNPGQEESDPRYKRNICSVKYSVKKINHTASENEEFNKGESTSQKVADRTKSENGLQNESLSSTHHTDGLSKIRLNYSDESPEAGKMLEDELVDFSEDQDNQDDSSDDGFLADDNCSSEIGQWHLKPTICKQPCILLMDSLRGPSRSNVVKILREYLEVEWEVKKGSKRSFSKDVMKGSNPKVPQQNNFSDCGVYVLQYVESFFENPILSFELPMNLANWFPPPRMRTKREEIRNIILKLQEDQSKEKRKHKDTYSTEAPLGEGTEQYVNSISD

Caspase-3 = molecular target: T5, Caspase-3 (Homo sapiens, UniProt P42574); assay: SAR Analysis of small molecule inhibitors of Sentrin-specific proteases (SENPs) using a Caspase-3 Selectivity assay. [Related pubchem assays (depositor defined):AID2540, AID2599, AID434973, AID489001]; format: functional
T5 sequence (P42574 whole entry): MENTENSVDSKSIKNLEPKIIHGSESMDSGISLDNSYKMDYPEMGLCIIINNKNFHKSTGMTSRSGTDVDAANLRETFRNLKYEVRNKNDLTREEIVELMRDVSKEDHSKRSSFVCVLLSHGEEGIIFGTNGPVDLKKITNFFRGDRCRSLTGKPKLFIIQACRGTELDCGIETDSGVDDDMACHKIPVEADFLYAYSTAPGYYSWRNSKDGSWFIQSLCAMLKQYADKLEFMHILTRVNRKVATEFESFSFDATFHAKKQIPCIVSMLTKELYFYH

[9] = molecular target: Serine/threonine-protein kinase TAO1 (Homo sapiens, UniProt Q7L7X3); format: functional
[10] = molecular target: Leukocyte tyrosine kinase receptor (Homo sapiens, UniProt P29376); assay: Navigating the Kinome. Panel member name: LTK; format: functional
[11] = molecular target: Dual specificity protein phosphatase 3 (Homo sapiens, UniProt P51452); assay: VHR phosphatase inhibition, dose response, selectivity assay for STEP inhibitor project, biochemical (AID 602374); format: functional; conditions: read-out: IC50_Mean
[12] = molecular target: Tyrosine-protein phosphatase non-receptor type 5 (Homo sapiens, UniProt P54829); assay: PTPN5 enzyme inhibition – biochemical, fluorescence intensity, uHTS hits, confirmation (AID 602372); format: functional; conditions: read-out: IC50_Mean
[13] = molecular target: Tyrosine-protein phosphatase non-receptor type 11 (Homo sapiens, UniProt Q06124); assay: PTPN11 enzyme inhibitors – biochemical, selectivity assay for STEP inhibitor project, dose response (AID 602367); format: functional; conditions: read-out: IC50_Mean
HEK293 [14] = assay: membrane integrity loss in HEK cells – cell-based, fluorescence, cytotoxicity control for IDE activator project, dose response (AID 588440); format: functional; conditions: Homo sapiens;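 note: cytotoxicity by LDH release measuring loss of membrane integrity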
HEK293 [15] = assay: optical interference in Abeta FP readout, dose response, artefact control for IDE activator project, biochemical, fluorescence polarization (AID 588442); format: functional, cell-based; conditions: Homo sapiens
Insulin-degrading enzyme [16] = molecular target: T6, Insulin-degrading enzyme (Homo sapiens, UniProt P14735); assay: recombinant IDE activation, cell-free – biochemical, fluorescence polarization, counter-screen for IDE activator project, dose response (AID 588681)
T6 sequence (P14735 whole entry): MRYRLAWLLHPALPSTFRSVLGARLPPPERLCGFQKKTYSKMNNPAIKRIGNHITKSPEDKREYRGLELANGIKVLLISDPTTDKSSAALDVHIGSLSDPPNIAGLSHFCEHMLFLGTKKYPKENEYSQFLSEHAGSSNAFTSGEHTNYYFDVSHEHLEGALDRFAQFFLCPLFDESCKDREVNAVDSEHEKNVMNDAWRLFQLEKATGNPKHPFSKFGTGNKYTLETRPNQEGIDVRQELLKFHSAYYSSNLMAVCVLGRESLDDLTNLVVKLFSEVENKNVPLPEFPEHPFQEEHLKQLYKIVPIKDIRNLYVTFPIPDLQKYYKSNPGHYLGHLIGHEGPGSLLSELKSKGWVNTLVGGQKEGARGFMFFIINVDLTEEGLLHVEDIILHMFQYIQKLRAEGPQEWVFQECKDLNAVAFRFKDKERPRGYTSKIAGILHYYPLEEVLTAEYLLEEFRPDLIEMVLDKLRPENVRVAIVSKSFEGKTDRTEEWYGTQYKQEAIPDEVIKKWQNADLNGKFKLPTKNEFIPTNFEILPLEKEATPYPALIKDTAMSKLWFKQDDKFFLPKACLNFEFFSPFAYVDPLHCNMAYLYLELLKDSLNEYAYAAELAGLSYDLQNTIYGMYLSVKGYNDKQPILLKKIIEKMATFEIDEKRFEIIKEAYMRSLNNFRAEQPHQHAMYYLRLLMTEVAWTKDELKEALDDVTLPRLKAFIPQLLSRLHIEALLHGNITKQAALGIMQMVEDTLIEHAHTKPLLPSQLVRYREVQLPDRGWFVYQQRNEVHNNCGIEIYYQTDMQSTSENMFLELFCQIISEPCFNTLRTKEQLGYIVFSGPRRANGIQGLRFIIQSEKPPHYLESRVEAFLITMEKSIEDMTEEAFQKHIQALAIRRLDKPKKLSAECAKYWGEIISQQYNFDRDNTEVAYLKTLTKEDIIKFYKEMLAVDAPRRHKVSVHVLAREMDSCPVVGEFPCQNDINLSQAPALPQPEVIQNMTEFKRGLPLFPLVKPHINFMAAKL

Insulin-degrading enzyme [17] = molecular target: T6, Insulin-degrading enzyme; assay: cellular IDE activation of Abeta substrate cleavage – fluorescence polarization, HEK cells, dose response (AID 588439); format: functional, cell-based

Chain of Melanin-concentrating hormone receptor 1 (Q99705 whole entry): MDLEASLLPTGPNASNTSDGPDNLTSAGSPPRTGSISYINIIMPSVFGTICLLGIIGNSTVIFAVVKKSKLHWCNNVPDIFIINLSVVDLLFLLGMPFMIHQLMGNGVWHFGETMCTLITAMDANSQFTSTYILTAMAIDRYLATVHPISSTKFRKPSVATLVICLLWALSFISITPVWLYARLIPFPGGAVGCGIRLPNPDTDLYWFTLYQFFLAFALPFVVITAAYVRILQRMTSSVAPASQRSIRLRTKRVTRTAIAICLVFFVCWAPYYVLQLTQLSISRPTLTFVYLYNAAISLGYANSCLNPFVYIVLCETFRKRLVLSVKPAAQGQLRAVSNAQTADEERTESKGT
Chain of 72 kDa type IV collagenase (P08253 whole entry): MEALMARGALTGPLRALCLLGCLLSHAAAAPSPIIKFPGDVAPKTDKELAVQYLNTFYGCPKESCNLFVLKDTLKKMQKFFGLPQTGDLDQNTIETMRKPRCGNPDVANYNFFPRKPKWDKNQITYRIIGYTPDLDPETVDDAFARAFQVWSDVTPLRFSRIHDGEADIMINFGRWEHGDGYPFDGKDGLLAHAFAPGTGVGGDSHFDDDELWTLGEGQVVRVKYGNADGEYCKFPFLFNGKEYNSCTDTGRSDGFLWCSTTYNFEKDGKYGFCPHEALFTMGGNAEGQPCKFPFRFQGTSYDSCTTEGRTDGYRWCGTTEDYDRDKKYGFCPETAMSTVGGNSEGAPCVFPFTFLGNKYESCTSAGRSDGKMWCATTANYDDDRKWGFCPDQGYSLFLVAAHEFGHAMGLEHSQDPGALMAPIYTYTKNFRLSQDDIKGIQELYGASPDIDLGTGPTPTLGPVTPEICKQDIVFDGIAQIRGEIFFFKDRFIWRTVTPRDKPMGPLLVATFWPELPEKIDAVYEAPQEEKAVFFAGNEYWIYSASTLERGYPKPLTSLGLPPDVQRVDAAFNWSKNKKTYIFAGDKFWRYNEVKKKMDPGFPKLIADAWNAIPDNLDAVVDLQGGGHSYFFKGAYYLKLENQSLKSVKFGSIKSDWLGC
Chain of 26S proteasome non-ATPase regulatory subunit 14 (O00487 whole entry): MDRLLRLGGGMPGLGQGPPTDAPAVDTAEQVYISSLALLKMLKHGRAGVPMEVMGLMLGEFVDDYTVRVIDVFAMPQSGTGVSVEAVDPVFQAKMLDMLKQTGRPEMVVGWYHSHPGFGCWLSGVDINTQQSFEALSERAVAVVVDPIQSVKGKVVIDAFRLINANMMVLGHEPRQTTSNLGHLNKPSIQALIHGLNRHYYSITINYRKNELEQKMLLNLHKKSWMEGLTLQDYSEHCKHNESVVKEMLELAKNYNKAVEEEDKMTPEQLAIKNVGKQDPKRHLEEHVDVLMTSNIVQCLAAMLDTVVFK
Chain of Induced myeloid leukemia cell differentiation protein Mcl-1 (Q07820 whole entry): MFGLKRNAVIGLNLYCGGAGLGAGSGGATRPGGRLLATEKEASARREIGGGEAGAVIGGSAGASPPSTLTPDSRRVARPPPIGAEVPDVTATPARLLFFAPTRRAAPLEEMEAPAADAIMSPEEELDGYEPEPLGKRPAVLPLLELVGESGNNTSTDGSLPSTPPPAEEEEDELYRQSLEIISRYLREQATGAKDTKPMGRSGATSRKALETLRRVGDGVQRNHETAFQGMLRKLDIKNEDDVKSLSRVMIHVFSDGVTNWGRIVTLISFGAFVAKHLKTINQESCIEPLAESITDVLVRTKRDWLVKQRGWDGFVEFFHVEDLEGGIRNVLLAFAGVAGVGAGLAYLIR
Chain of Serine/threonine-protein kinase TAO1 (Q7L7X3 whole entry): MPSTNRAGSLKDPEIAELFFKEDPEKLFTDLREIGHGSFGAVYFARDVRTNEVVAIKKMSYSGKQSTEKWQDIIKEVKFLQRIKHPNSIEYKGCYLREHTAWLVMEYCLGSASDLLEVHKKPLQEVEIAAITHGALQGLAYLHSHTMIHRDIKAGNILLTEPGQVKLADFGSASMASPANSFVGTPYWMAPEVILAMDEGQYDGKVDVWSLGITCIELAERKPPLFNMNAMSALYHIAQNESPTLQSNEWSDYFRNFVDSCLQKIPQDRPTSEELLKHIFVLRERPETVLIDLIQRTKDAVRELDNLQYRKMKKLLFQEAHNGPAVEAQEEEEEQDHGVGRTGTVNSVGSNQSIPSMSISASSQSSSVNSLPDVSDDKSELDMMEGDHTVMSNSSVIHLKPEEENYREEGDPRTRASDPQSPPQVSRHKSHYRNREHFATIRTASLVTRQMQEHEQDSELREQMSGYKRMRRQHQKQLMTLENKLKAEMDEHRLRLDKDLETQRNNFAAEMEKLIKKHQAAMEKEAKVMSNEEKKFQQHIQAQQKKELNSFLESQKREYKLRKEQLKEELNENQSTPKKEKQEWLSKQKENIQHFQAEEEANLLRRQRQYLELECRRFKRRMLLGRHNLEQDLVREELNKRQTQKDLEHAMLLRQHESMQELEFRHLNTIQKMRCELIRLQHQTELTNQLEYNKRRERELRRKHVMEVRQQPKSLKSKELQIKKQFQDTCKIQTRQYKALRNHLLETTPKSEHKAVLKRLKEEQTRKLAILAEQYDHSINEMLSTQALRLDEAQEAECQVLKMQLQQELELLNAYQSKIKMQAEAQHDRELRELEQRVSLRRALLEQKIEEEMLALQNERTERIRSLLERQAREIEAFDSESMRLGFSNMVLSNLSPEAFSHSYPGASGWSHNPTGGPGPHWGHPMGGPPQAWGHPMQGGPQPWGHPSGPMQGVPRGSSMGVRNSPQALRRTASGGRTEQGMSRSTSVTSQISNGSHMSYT
Chain of Dual specificity protein phosphatase 3 (P51452 whole entry): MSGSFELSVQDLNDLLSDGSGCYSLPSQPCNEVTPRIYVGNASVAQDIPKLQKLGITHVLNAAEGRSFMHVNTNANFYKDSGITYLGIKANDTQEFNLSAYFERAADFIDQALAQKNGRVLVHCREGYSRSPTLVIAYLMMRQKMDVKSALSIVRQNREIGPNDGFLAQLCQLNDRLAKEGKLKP
Chain of Leukocyte tyrosine kinase receptor (P29376 whole entry): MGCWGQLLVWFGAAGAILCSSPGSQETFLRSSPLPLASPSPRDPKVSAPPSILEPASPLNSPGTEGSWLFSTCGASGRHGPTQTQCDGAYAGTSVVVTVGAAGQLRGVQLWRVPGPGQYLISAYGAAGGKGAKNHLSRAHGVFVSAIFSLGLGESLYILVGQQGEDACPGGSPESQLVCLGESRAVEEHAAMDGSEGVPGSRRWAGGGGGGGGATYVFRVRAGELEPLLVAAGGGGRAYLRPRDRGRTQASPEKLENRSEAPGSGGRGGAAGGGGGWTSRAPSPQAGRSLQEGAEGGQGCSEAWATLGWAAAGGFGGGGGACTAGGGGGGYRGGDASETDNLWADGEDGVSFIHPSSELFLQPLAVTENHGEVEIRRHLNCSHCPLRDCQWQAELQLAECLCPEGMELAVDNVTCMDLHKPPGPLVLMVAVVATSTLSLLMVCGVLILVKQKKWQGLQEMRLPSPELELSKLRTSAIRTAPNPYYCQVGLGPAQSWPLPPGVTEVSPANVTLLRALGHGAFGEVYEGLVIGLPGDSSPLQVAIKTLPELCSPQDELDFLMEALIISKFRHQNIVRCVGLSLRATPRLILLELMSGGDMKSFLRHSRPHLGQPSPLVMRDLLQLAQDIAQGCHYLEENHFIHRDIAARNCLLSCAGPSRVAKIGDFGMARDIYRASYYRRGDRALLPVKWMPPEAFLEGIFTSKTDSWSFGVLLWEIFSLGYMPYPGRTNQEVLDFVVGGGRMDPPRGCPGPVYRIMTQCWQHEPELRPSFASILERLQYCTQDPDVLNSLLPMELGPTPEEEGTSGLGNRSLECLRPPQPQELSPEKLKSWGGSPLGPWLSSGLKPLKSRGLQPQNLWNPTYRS
Chain of Tyrosine-protein phosphatase non-receptor type 5 (P54829 whole entry): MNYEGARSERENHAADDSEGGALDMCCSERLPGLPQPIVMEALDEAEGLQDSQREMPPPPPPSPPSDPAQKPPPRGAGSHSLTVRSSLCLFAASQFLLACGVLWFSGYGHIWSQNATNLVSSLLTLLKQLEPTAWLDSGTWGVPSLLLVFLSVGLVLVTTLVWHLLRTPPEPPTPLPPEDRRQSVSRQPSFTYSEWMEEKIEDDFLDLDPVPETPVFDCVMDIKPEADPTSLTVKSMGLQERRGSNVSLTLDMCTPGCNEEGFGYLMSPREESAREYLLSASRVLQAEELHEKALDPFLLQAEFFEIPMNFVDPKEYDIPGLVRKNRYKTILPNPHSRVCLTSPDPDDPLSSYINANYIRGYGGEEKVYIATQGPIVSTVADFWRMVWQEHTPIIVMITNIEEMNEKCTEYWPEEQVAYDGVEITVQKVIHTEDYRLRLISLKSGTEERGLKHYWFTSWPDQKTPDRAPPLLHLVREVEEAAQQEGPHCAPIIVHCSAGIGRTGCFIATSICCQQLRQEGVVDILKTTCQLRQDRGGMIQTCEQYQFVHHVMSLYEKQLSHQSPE

IC50 (Prothrombin): 45.6 µM (active)
IC50 [1]: 48.3 µM (active)
IC50 [2]: > 100 µM (inactive)
Compound: O=C(/C=C/c1cccs1)Nc1cccc(NC(=O)/C=C/c2cccs2)n1

IC50 (Prothrombin): 40.2 µM (active)
IC50 [3]: 1.53 µM (not active)
IC50 [1]: 18.8 µM (active)
IC50 [2]: 20 µM (active)
Compound: COc1ccc(/C=C2\C(=O)NC(=S)N2C(=O)c2ccc(C)cc2)cc1

IC50 [4]: > 20 µM (inactive)
IC50 [5]: > 20 µM (inactive)
Compound: CCOc1ccc(Oc2c(N3CCCCC3)c(Br)nn(Cc3cccc4ccccc34)c2=O)cc1

IC50 [6]: > 99 µM (inactive)
IC50 [8]: > 99 µM (inactive)
IC50 (Caspase-3): > 99 µM (inactive)
Compound: COc1cc(OC)cc(-c2nc(/C=C/c3ccccc3)no2)c1
IC50 [7]: > 99 µM (inactive)

Ki [9]: 1 µM (active)
Ki [10]: 2.51 µM (active)
Compound: O=C(O)C1CN(Cc2ccc(OCc3ccc(Cl)cc3Cl)cc2)C1

IC50 [11]: 1.92 µM (active)
IC50 [12]: 45.3 µM (inactive)
IC50 [13]: 3.35 µM (active)
Compound: CCN1CCN(C(=S)c2ccc(OCC(=O)NCc3ccccc3)cc2)CC1

IC50 [4]: 10.1 µM (inactive)
IC50 [5]: > 20 µM (inactive)
Compound: COc1cc(OC)cc(Oc2c(Cl)cnn(Cc3cccc4ccccc34)c2=O)c1

Compound: Cc1cc(Oc2ccc(C#N)cc2)nc(N2CCOCC2)n1
IC50 (HEK293 [14]): > 89.2 µM (inactive)
EC50 (HEK293 [15]): > 54.7 µM (inactive)
EC50 (Insulin-degrading enzyme [16]): > 54.7 µM (inactive)
EC50 (Insulin-degrading enzyme [17]): > 54.7 µM (inactive)

IC50 [6]: > 99 µM (inactive)
IC50 [8]: > 99 µM (inactive)
IC50 (Caspase-3): > 99 µM (inactive)
Compound: CCCCc1ccc2nc(NC(=O)c3cc(Br)cs3)sc2c1
IC50 [7]: > 99 µM (inactive)
